Data reported in patent publication US8304447B2, “2-acylaminopropoanol-type glucosylceramide synthase inhibitors” (Genzyme Corporation, priority 2007, dated 2012).

test system: GM3; test: GM3 Elisa assay; type: cell-based; details: 48 h, Table 1; B16-FO cells, 2 days incubation; read-out: IC50_uM_Mean
Summary of the method: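 Murine B16-FO melanoma cells attached 6 h on collagen, then exposed to compounds for 2 days at 37 °C. After formaldehyde fixation, cell-surface GM3 (NeuAc) was detected by anti-GM3 IgM and peroxidase anti-mouse IgM with Quantablu fluorescence (Ex 325/Em 420).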

`COc1ccc(C(=O)CCCC(=O)N[C@H](CN2CCCC2)[C@H](O)c2ccc3c(c2)OCCO3)cc1` [Compound 191, N-((1R,2R)-1-(2,3-dihydrobenzo[β][1,4]dioxin-6-yl)-1-hydroxy-3-(pyrrolidin-1-yl)propan-2-yl)-5-(4-methoxyphenyl)-5-oxopentanamide (2R,3R)-2,3-dihydroxysuccinate] and `COc1ccc(C(=O)CCCCCCC(=O)N[C@H](CN2CCCC2)[C@H](O)c2ccc3c(c2)OCCO3)cc1` [Compound 144, N-((1R,2R)-1-(2,3-dihydrobenzo[β][1,4]dioxin-6-yl)-1-hydroxy-3-(pyrrolidin-1-yl)propan-2-yl)-8-(4-methoxyphenyl)-8-oxooctanamide] cannot be ordered by IC50: at most 100 nM for the first, at most 100 nM for the second.

`Cc1cccc(CC(=O)N[C@H](CN2CCCC2)[C@H](O)c2ccc3c(c2)OCCO3)c1` [Compound 36, N-((1R,2R)-1-(2,3-dihydrobenzo[b][1,4]dioxin-6-yl)-1-hydroxy-3-(pyrrolidin-1-yl)propan-2-yl)-2-m-tolylacetamide] and `O=C(CSc1ccccc1)N[C@H](CN1CCCC1)[C@H](O)c1ccc2c(c1)OCCO2` [Compound 11, N-((1R,2R)-1-(2,3-dihydrobenzo[β][1,4]dioxin-6-yl)-1-hydroxy-3-(pyrrolidin-1-yl)propan-2-yl)-2-(phenylthio)acetamide] cannot be ordered by IC50: 100 to 1000 nM for the first, at most 100 nM for the second.

`O=C(N[C@H](CN1CCCC1)[C@H](O)c1ccc2c(c1)OCCO2)c1ccc(-c2ccccc2)cc1` [Compound 12, N-((1R,2R)-1-(2,3-dihydrobenzo[β][1,4]dioxin-6-yl)-1-hydroxy-3-(pyrrolidin-1-yl)propan-2-yl)biphenyl-4-carboxamide] and `COc1cccc(-c2ccc(CC(=O)N[C@H](CN3CCCC3)[C@H](O)c3ccc4c(c3)OCCO4)cc2)c1` [Compound 63, N-((1R,2R)-1-(2,3-dihydrobenzo[β][1,4]dioxin-6-yl)-1-hydroxy-3-(pyrrolidin-1-yl)propan-2-yl)-2-(3 methoxybiphenyl-4-yl)acetamide] cannot be ordered by IC50: 100 to 1000 nM for the first, at most 100 nM for the second.

`O=C(CCCCCCCCCCCc1cccnc1)N[C@H](CN1CCCC1)[C@H](O)c1ccc2c(c1)OCCO2` [Compound 305] and `CC(=O)CCc1ccc(OCCC(=O)N[C@H](CN2CCCC2)[C@H](O)c2ccc3c(c2)OCCO3)cc1` [Compound 193, N-((1R,2R)-1-(2,3-dihydrobenzo[b][1,4]dioxin-6-yl)-1-hydroxy-3-(pyrrolidin-1-yl)propan-2-yl)-3-(4-(3-oxobutyl)phenoxy)propanamide (2R,3R)-2,3-dihydroxysuccinate] cannot be ordered by IC50: at most 100 nM for the first, 100 to 1000 nM for the second.

`O=C(Nc1ccc(OC(F)(F)F)cc1)N[C@H](CN1CCCC1)[C@H](O)c1ccc2c(c1)OCCO2` [Compound 82, 1-((1R,2R)-1-(2,3-dihydrobenzo[β][1,4]dioxin-6-yl)-1-hydroxy-3-(pyrrolidin-1-yl)propan-2-yl)-3-(4-(trifluoromethoxy)phenyl)urea] and `O=C(NCc1ccc(Cl)cc1)N[C@H](CN1CCCC1)[C@H](O)c1ccc2c(c1)OCCO2` [Compound 43, 1-(4-chlorobenzyl)-3-((1R,2R)-1-(2,3-dihydrobenzo[β][1,4]dioxin-6-yl)-1-hydroxy-3-(pyrrolidin-1-yl)propan-2-yl)urea] cannot be ordered by IC50: at most 100 nM for the first, at most 100 nM for the second.

`CCC(=O)c1ccc(OCCC(=O)N[C@H](CN2CCCC2)[C@H](O)c2ccc3c(c2)OCCO3)cc1` [Compound 189, N-((1R,2R)-1-(2,3-dihydrobenzo[b][1,4]dioxin-6-yl)-1-hydroxy-3-(pyrrolidin-1-yl)propan-2-yl)-3-(4-propionylphenoxy)propanamide (2R,3R)-2,3-dihydroxysuccinate] and `C[C@H](NC(=O)N[C@H](CN1CCCC1)[C@H](O)c1ccc2c(c1)OCCO2)c1cccc2ccccc12` [Compound 71, 1-((1R,2R)-1-(2,3-dihydrobenzo [β][1,4]dioxin-6-yl)-1-hydroxy-3-(pyrrolidin-1-yl)propan-2-yl)-3-((S)-1-(naphthalen-1-yl)ethyl)urea] fall in the same range of IC50: 100 to 1000 nM for the first, 100 to 1000 nM for the second.

same assay, conditions: 48 h, Table 2; B16-FO cells, 2 days incubation; read-out: IC50_uM_Mean

`CCCCCCCC(=O)N[C@H](CN1CCCC1)[C@H](O)c1ccc(OC)c(OC)c1` [Compound 321] and `COc1ccc(OCCC(=O)N[C@H](CN2CCCC2)[C@H](O)c2ccc(OC)c(OC)c2)cc1` [Compound 274] fall in the same range of IC50: 1000 to 3000 nM for the first, 1000 to 3000 nM for the second.

First: COc1ccc([C@@H](OC(=O)Cc2ccc(C(F)(F)F)cc2)[C@@H](CN2CCCC2)NC(=O)Cc2ccc(C(F)(F)F)cc2)cc1 [Compound 250]
Second: O=C(NCCc1cccs1)N[C@H](CN1CCCC1)[C@H](O)c1ccc2c(c1)OCCO2 [Compound 287, 1-((1R,2R)-1-(2,3-dihydrobenzo[β][1,4]dioxin-6-yl)-1-hydroxy-3-(pyrrolidin-1-yl)propan-2-yl)-3-(2-(thiophen-2-yl)ethyl)urea]
The IC50 of the first is lower: 100 to 1000 nM for the first, 1000 to 3000 nM for the second.

Compound `CCCCCCCC(=O)N[C@H](CNCCCC)[C@H](O)c1ccc2c(c1)OCCO2` [Compound 310] has an IC50 of 1000 to 3000 nM.

same assay, conditions: Table 3 (IC 50 Values); B16-FO cells; read-out: IC50_uM_Mean

First: O=C(CCCCS(=O)(=O)C1CCCCC1)N[C@H](CN1CCCC1)[C@H](O)c1ccc2c(c1)OCCO2 [Compound 557]
Second: O=C(CCCCOCC(F)(F)F)N[C@H](CN1CCCC1)[C@H](O)c1ccc2c(c1)OCCO2 [Compound 617]
The IC50 of the first is higher: 3000 to 10000 nM for the first, 1000 to 3000 nM for the second. The second is the more potent here.

`COCCOc1ccc(C(=O)CCCC(=O)N[C@H](CN2CC[C@H](O)C2)[C@H](O)c2ccc(OC(C)C)cc2)cc1` [Compound 737] and `CC(=O)c1ccc(OCCCC(=O)N[C@H](CN2CCCC2)[C@H](O)c2ccc(OC(C)C)cc2)cc1` [Compound 724] fall in the same range of IC50: 100 to 1000 nM for the first, 100 to 1000 nM for the second.

`O=C(CCCCC(=O)C1CCOCC1)N[C@H](CN1CC[C@@H](F)C1)[C@H](O)c1ccc(OCc2ccccc2)cc1` [Compound 576] and `COc1ccc(OCCCC(=O)N[C@H](CN2CC[C@@H](F)C2)[C@H](O)c2ccc(OCCCCF)cc2)cc1` [Compound 734] cannot be ordered by IC50: 100 to 1000 nM for the first, at most 100 nM for the second.

`CCCCCCCC(=O)N[C@H](CN1CCC[C@@H]1C(F)(F)F)[C@H](O)c1ccc2c(c1)OCCO2` [Compound 546] and `CCCCCCCC(=O)N[C@H](CCN1CCCC1)[C@H](O)c1ccc2c(c1)OCCO2` [Compound 687] fall in the same range of IC50: 3000 to 10000 nM for the first, 3000 to 10000 nM for the second.

First: COc1ccc(C(=O)CCCCC(=O)N[C@H](CN2CCCC2)[C@H](O)c2ccc(OC)cc2OC)cc1 [Compound 353]
Second: COc1ccc(C(=O)CCCCC(=O)N[C@H](CN2CCCC2)[C@H](O)c2ccc(C(F)(F)F)cc2)cc1 [Compound 491]
The IC50 of the first is lower: 100 to 1000 nM for the first, 1000 to 3000 nM for the second.

First: COc1ccc(C(=O)CCCCCC(=O)N[C@H](CN2CCCC2)[C@H](O)c2ccc(C(F)(F)F)cc2)cc1 [Compound 484]
Second: COc1ccc(CCOc2ccc([C@@H](O)[C@@H](CN3CCCC3)NC(=O)CCCCC(=O)c3ccc(OC)cc3)cc2)cc1 [Compound 440]
The IC50 of the first is higher: 1000 to 3000 nM for the first, at most 100 nM for the second. The second is the more potent here.

First: O=C(Cc1ccc(OC(F)(F)F)cc1)N[C@H](CN1CCCC1)[C@H](O)c1ccc(Cl)cc1 [Compound 381]
Second: CC(C)Oc1ccc([C@@H](O)[C@@H](CN2CCC(F)C2)NC(=O)NCc2ccc(Cl)cc2)cc1 (stereo partly shown) [Compound 726]
The IC50 of the first is higher: 1000 to 3000 nM for the first, 100 to 1000 nM for the second.

`O=C(CCCC(=O)c1ccc(F)cc1)N[C@H](CN1C2CCC1CC2)[C@H](O)c1ccc2c(c1)OCCO2` [Compound 474] and `O=C(CCCCC(=O)c1ccc(F)cc1)N[C@H](CN1CCCC1)[C@H](O)c1ccc2c(c1)OCCO2` [Compound 640] fall in the same range of IC50: 100 to 1000 nM for the first, 100 to 1000 nM for the second.

First: Cc1nccn1C[C@@H](NC(=O)CCCCCC(=O)c1ccc(F)cc1)C(O)c1ccc2c(c1)OCCO2 (stereo partly shown) [Compound 569]
Second: COc1ccc(C(=O)CCCCCC(=O)N[C@H](CNC(C)C)C(O)c2ccc3c(c2)OCCO3)cc1 (stereo partly shown) [Compound 465]
The IC50 of the first is higher: 3000 to 10000 nM for the first, 100 to 1000 nM for the second.

`CC(C)Oc1ccc(C(=O)NCCCCCC(=O)N[C@H](CN2CCCC2)[C@H](O)c2ccc3c(c2)OCCO3)cc1` [Compound 690] and `COc1ccc(C(=O)CCC(=O)CCC(=O)N[C@H](CN2CCCC2)[C@H](O)c2ccc3c(c2)OCCO3)cc1` [Compound 378] cannot be ordered by IC50: at most 100 nM for the first, at most 100 nM for the second.

`CCCCCCOc1ccc([C@@H](O)[C@@H](CN2CCCC2)NC(=O)CCCC(=O)c2ccc(OCCOC)cc2)cc1` [Compound 442] and `CCCCCCOc1ccc([C@@H](O)[C@@H](CN2CCCC2)NC(=O)CCCOc2ccc(C(C)=O)cc2)cc1` [Compound 727] cannot be ordered by IC50: at most 100 nM for the first, at most 100 nM for the second.

`O=C(NCc1ccc(Cl)cc1)N[C@H](CN1CC[C@H](O)C1)[C@H](O)c1ccc(OCCCCF)cc1` [Compound 503] and `O=C(NCc1ccc(Cl)cc1)N[C@H](CN1CC[C@@H](F)C1)[C@H](O)c1ccc(OCCCCF)cc1` [Compound 735] cannot be ordered by IC50: at most 100 nM for the first, at most 100 nM for the second.

`CCCCCCOc1ccc([C@@H](O)[C@@H](CN2CCCC2)NC(=O)CCOc2ccc(OC)cc2)cc1` [Compound 413] and `COc1ccc(C(=O)CCCCC(=O)N[C@H](CN2CCCC2)[C@H](O)c2ccc(OCCOc3c(C)cccc3C)cc2)cc1` [Compound 373] cannot be ordered by IC50: at most 100 nM for the first, at most 100 nM for the second.

`CCCCCCCC(=O)N[C@H](CN1CCCC1)[C@H](O)c1ccc2c(c1)OC(F)(F)O2` [Compound 411] and `CCCCCCCC(=O)N[C@H](CN1CCCC1)[C@H](O)c1cc(OC)c(OC)c(OC)c1` [Compound 669] fall in the same range of IC50: 3000 to 10000 nM for the first, 3000 to 10000 nM for the second.

First: CC1CCN(C[C@@H](NC(=O)CCCCCC(=O)c2ccccc2)[C@H](O)c2ccc3c(c2)OCCO3)CC1 [Compound 612]
Second: O=C(CCCCCN1Cc2ccccc2C1=O)N[C@H](CN1CCCC1)[C@H](O)c1ccc2c(c1)OCCO2 [Compound 486]
The IC50 of the first is higher: 3000 to 10000 nM for the first, 1000 to 3000 nM for the second. The second is the more potent here.

Compared with `CCCCOc1ccc([C@@H](O)[C@@H](CN2CC[C@H](O)C2)NC(=O)CCCCCOCCF)cc1` [Compound 661], `COc1ccc(OCCC(=O)N[C@H](CN2CC(F)(F)C2)[C@H](O)c2ccc3c(c2)OCCO3)cc1` [Compound 622] is higher in IC50: 1000 to 3000 nM for the first, 3000 to 10000 nM for the second.

First: O=C(N[C@H](CN1CCCC1)[C@H](O)c1ccc2c(c1)OCCO2)C1(C(=O)c2ccc(F)cc2)CC1 [Compound 638]
Second: COc1ccc(OCCC(=O)N[C@H](CN2C3CCC2CC3)[C@H](O)c2ccc3c(c2)OCCO3)cc1 [Compound 523]
The IC50 of the first is higher: 3000 to 10000 nM for the first, 100 to 1000 nM for the second.

`COc1ccc(OCCC(=O)N[C@H](CN2CCCC2)[C@H](O)c2sccc2C)cc1` [Compound 363] showed an IC50 of 100 to 1000 nM.
